The text below walks through data of PMC10709440, “High-throughput ligand profile characterization in novel cell lines expressing seven heterologous insect olfactory receptors for the detection of volatile plant biomarkers” (Scientific Reports, 2023).

In the assay the target is T1, Drosophila OR98a (Drosophila melanogaster, UniProt Q9VAZ3).
T1 construct: expressed in transfected cells
T1 sequence (Q9VAZ3 1-397): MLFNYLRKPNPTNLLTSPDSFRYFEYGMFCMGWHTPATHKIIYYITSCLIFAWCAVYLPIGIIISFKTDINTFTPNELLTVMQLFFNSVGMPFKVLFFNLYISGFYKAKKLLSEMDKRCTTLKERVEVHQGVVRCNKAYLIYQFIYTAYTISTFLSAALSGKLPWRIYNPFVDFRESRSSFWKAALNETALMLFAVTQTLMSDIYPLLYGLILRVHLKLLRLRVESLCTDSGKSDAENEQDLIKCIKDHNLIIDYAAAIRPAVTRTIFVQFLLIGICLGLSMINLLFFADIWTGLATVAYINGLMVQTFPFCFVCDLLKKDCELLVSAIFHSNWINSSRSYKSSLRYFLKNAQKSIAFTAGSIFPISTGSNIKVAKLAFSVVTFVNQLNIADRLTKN
T1 sequence (Q9VNB5 1-486 partner): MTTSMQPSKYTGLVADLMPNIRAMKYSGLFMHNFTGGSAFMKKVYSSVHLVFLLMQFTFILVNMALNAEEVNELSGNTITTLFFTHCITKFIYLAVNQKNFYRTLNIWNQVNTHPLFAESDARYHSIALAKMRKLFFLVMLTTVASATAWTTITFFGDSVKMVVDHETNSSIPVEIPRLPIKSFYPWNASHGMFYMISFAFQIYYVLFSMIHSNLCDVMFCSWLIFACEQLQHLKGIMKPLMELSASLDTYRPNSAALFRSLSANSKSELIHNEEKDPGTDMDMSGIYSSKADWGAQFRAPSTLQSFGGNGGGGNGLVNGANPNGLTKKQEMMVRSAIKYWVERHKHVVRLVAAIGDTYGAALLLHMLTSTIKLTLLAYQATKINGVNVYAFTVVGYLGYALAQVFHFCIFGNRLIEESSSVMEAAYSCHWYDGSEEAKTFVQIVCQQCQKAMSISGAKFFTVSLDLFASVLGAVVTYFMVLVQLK
The assay can be described thus: cell-based. Conditions: HEK293; relative to 50 uM VUAA1 response; below 0.05 set to 0; read-out: % activation. On the set-up: GCaMP6 calcium fluorescence in stable HEK293 OR+ORCO lines; peak dF normalised to 50 uM VUAA1 (=1). In short, it runs like this:
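Doxycycline-induced (1 μg/mL, 48–72 h) OR cell lines in pH 7.3 HEPES buffer were given VOCs at 1, 10 and 100 µM final; calcium fluorescence was read 30 s at 1/s. ΔF=(FMAX−F0)/F0, normalized to each line's response to 50 µM VUAA1, triplicate wells.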

For `CC1=CCC[C@@]2(C)[C@@H]3CC[C@]12CC3(C)C` [(−)-α-neoclovene], the activity at 1 µM turned out to be 14.8%.
Take `C=C1CC[C@@]23C[C@@H]1C(C)(C)[C@@H]2CC[C@H]3C` [(+)-beta-cedrene]: the activity at 1 µM came to 8.55%, the activity at 10 µM was 5.99% and the activity at 100 µM amounted to 6.08%.
Regarding `C=C(C)[C@H]1CC=C(C)CC1` [(R)-(+)-limonene], the activity at 1 µM was 0%, the activity at 10 µM stood at 0% and the activity at 100 µM was determined as 0%.
For `C=C(C)C1CCC2(C)OC2C1` (single isomer, unassigned; (+)) [(+)-limonene oxide], the activity at 1 µM was 0%, the activity at 10 µM came out at 0% and the activity at 100 µM was determined as 0%.
For `C=C1[C@H]2CC[C@@H]3[C@H]2C(C)(C)CCC[C@]13C` [(+)-longifolene], the activity at 1 µM was 0%, the activity at 10 µM came out at 12.6% and the activity at 100 µM was determined as 0%.
